Assay results taken from article PMC6273213, “Novel Triazole-Quinoline Derivatives as Selective Dual Binding Site Acetylcholinesterase Inhibitors” (Molecules, 2016).
Counter-ions that a name gives are not always drawn.

Legend:
hAChE = target: T1, hAChE (Homo sapiens, UniProt P22303); assay: biochemical; conditions: for inhibition at 100 µM: 100 μM compound, substrate ACThI; for inhibition at 100 µM / IC50: human recombinant hAChE; for IC50: at least six concentrations, read-out: IC50 ± SEM (μM) hAChE; for Ki: steady-state inhibition constant from replots of reciprocal plots, read-out: Ki ± SEM (μM) hAChE; for Mechanism Type hAChE: Lineweaver-Burk plots
T1 construct: purchased Sigma-Aldrich; host or cells: HEK 293 cells
Protocol: (§1) Buffer components and all of the chemicals used were all analytical grade materials, and were obtained from Sigma, Merck (Darmstadt, Germany), Synth (São Paulo, Brazil) or Acros (Geel, Belgium). The water used in all of the preparations was purified with a Millipore Milli-Q® system (Millipore, São Paulo, Brazil).
(§2) The ligand assays were carried out in accordance with the literature, albeit with some modifications. Briefly, the assays were carried out using a 96-well microplate with an Elisa microplate reader. To a final volume of 250 µL, each well was filled with: 125 µL of Ellman’s reagent (3 mM in […] phosphate buffer pH 7.4); 50 µL of buffer TRIS (50 mM, pH 8.0); 25 µL of enzyme solution at the final concentration 0.28 U/mL (in […] phosphate buffer pH 7.4); 25 µL of the ACThI (15 mM) for AChE and 25 µL of the BCThI (15 mM) for BChE; and 25 µL of each inhibitor sample (1 mM), final concentration at 100 µM. The microplate was shaken for 10 s followed by reading the absorbance at 412 nm at 30 s intervals for two minutes. The negative control (compound and absence of ACThI) and a positive control (ACThI and absence of compound) were carried out.
(§3) The assays were carried out in duplicate.
IC50 values were independently determined by performing rate measurements for at least six concentrations of the target inhibitor. The nonlinear regression parameters were calculated, and the IC50 was extrapolated.

hBChE = target: T2, hBChE (Homo sapiens, UniProt P06276); assay: biochemical; conditions: 100 μM compound; substrate BCThI
T2 construct: hBChE EC 3.1.1.8, 50 units mg^−1 from human erythrocytes; purchased Sigma-Aldrich; host or cells: human erythrocytes
Protocol: as §1, §2, §3

T1 sequence (P22303 32-614): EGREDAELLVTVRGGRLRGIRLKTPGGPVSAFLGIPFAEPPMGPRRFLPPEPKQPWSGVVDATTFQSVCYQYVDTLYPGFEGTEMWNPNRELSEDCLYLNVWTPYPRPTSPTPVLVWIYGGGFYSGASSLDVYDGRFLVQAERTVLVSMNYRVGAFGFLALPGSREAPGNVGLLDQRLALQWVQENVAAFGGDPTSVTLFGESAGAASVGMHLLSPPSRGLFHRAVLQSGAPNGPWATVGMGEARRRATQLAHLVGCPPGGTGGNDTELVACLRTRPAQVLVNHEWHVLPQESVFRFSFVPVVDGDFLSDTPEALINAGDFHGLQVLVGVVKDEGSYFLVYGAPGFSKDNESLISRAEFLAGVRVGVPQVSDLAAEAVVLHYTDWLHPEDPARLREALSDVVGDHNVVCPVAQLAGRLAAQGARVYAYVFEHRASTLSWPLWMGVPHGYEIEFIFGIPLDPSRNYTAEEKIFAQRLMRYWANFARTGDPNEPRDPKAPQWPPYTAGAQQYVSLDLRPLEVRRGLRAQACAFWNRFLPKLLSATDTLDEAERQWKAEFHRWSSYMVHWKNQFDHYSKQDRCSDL
T2 sequence (P06276 29-602): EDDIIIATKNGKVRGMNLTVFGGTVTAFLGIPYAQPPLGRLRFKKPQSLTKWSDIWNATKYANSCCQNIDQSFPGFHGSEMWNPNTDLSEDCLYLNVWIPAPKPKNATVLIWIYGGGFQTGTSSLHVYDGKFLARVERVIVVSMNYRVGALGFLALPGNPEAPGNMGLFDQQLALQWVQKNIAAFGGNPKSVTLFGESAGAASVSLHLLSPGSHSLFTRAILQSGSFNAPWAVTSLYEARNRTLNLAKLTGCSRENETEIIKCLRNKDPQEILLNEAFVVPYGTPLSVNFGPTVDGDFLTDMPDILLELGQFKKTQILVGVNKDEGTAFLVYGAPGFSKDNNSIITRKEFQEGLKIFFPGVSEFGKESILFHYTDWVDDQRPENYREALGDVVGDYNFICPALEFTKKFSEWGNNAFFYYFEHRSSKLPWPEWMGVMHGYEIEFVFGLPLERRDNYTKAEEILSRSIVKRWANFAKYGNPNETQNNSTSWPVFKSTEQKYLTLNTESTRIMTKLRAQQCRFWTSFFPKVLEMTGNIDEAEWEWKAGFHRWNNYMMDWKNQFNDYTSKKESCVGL

Structure (SMILES)	inhibition at 100 µM (hAChE) [%]	inhibition at 100 µM (hBChE) [%]	IC50 (hAChE) [µM]	Ki (hAChE) [µM]	Mechanism Type hAChE (hAChE)
COc1cc2c(cc1Cl)C/C(=C\c1ccc(-c3cn(-c4ccnc5ccccc45)nn3)cc1)C2=O [3c, (E)-5-Chloro-6-methoxy-2-(4-(1-(quinolin-4-yl)-1H-1,2,3-triazol-4-yl)benzylidene)-2,3-dihydro-1H-inden-1-one]	5.4	6.2			
O=C1/C(=C/c2ccc(-c3cn(-c4ccnc5ccccc45)nn3)cc2)Cc2ccc(Cl)cc21 [3e, (E)-6-Chloro-2-(4-(1-(quinolin-4-yl)-1H-1,2,3-triazol-4-yl)benzylidene)-2,3-dihydro-1H-inden-1-one]	37.7	0	147 ± 15	530 ± 150	
O=C1C(=Cc2ccc(-c3cn(-c4ccnc5ccccc45)nn3)cc2)Cc2cc3c(cc21)OCO3 [3b, (E)-5,6-Methilenedioxy-2-(4-(1-(quinolin-4-yl)-1H-1,2,3-triazol-4-yl)benzylidene)-2,3-dihydro-1H-inden-1-one]	0	5.2			
Cc1ccc2c(c1)C(=O)/C(=C/c1ccc(-c3cn(-c4ccnc5ccccc45)nn3)cc1)C2 [3d, (E)-6-Methyl-2-(4-(1-(quinolin-4-yl)-1H-1,2,3-triazol-4-yl)benzylidene)-2,3-dihydro-1H-inden-1-one]	9.1	0			
COc1cc2c(cc1OC)C(=O)C(CC1CCN(Cc3ccccc3)CC1)C2 (stereo not shown) [Donepezil, donepezil hydrochloride monohydrate, reference compound]		11.1			
COc1ccc2c(c1)C/C(=C\c1ccc(-c3cn(-c4ccnc5ccccc45)nn3)cc1)C2=O [3g, (E)-5-Methoxy-2-(4-(1-(quinolin-4-yl)-1H-1,2,3-triazol-4-yl)benzylidene)-2,3-dihydro-1H-inden-1-one]	48.1	0.2	114 ± 10	220 ± 60	mixed-type
COc1ccc2c(c1)C(=O)/C(=C/c1ccc(-c3cn(-c4ccnc5ccccc45)nn3)cc1)C2 [3h, (E)-6-Methoxy-2-(4-(1-(quinolin-4-yl)-1H-1,2,3-triazol-4-yl)benzylidene)-2,3-dihydro-1H-inden-1-one]	55.7	0	109	245 ± 70	mixed-type
COc1cc2c(cc1OC)C(=O)/C(=C/c1ccc(-c3cn(-c4ccnc5ccccc45)nn3)cc1)C2 [3a, (E)-5,6-Dimethoxy-2-(4-(1-(quinolin-4-yl)-1H-1,2,3-triazol-4-yl)benzylidene)-2,3-dihydro-1H-inden-1-one]	29	0	128 ± 25	185 ± 29	
